Experimental data reported in patent EP3875583A1, “GENETIC CASSETTE COMPRISING THE PHT PATHWAY GENES, RECOMBINANT HOST CELLS COMPRISING IT AND THEIR USE IN THE DEGRADATION AND VALORIZATION OF PHTHALATES” (Consejo Superior de Investigaciones Científicas (CSIC), priority 2020, dated 2021).

Columns and labels:
Type in all cases: cell-based
A. evansii cells = assay: [14C]-PA uptake assay in A. evansii cells grown under nitrate-reducing conditions; settings: Aromatoleum evansii; cells grown anaerobically on PA, exposed to 1 mM inhibitor before the [14C]-PA transport assay; read-out: PA transport capacity retained
Procedure: Cells were grown in NB from A600 of 0.1 to A600 of 1.8≈2.0, incubated for 14h, induced by adding 1.0 mM IPTG. Cells were harvested by centrifugation, washed twice in sodium salt and suspended at a cell density of 1090 mg of protein/liter (A600 of 4.0) in sodium salt. The uptake of radioactive o-phthalate into cells was followed in a reaction mixture containing 50 µL of prewarmed cells (at 30°C for 5 min) and 50 µL of 250 µM [^14C]-o-phthalate. […] Phthalate uptake was stopped by diluting the suspensions with 1 mL of ice-cold sodium salt, collecting the cells on a 0.22-µm-pore-size Millipore GSWP nitrocellulose filter, and washing, under suction, the cells with 5 mL of ice-cold sodium salt. The filter was dissolved in 2 ml of scintillation fluid (Cocktail Ready Safe, Beckman) and counted in an LKB Wallac liquid scintillation counter. […] To test the transporter's specificity the assays were performed according to the standard procedure but adding different unlabeled substrates: o-phthalate (250 mM), isophthalate (250 mM), terephthalate (250 mM).
To study PA transport in denitrifying bacteria expressing the pht peripheral pathway, we used A. evansii cells grown anaerobically in MC medium containing 5 mM benzoate or 5 mM PA. Cells suspended in sodium salt were incubated with 25 µM [^14C]-PA, and a time-course of the amount of [^14C]-PA incorporated into the cells was determined. […]

[1] = system: PhtTa-PhtTb TAXI-TRAP transporter; assay: [14C]-PA uptake assay in Azoarcus sp. CIB (pIZPHTRAP) cells expressing the transporter; settings: for [14C]-PA uptake after pre-incubation with inhibitor: cells pre-incubated 10 min with 1 mM inhibitor before the transport assay; for [14C]-PA uptake rate, % of the rate in the absence of a competitor substrate: 25 µM [14C]-PA
Procedure: Cells were grown in NB from A600 of 0.1 to A600 of 1.8≈2.0, incubated for 14h, induced by adding 1.0 mM IPTG. Cells were harvested by centrifugation, washed twice in sodium salt and suspended at a cell density of 1090 mg of protein/liter (A600 of 4.0) in sodium salt. […] Phthalate uptake was stopped by diluting the suspensions with 1 mL of ice-cold sodium salt, collecting the cells on a 0.22-µm-pore-size Millipore GSWP nitrocellulose filter, and washing, under suction, the cells with 5 mL of ice-cold sodium salt. The filter was dissolved in 2 ml of scintillation fluid (Cocktail Ready Safe, Beckman) and counted in an LKB Wallac liquid scintillation counter. […]
We have shown above that the phtTa-phtTb transport genes are essential for the anaerobic degradation of PA. To confirm that the phtTa-phtTb genes encode a PA transporter and to determine its biochemical properties, we performed PA uptake experiments at different [^14C]-PA concentrations in Azoarcus sp. […] CIB (pIZPHTRAP), i.e., cells that express the catabolic pht genes as well as the phtTa-phtTb transport genes - the genetic cassette of the invention. […]. […] [^14C]-PA uptake rates were tested in the presence of non-radioactive phthalate isomers as competitors.

benA gene = assay: real-time RT-PCR gene expression in C. necator H16 (pIZPHTRAP) cells; settings: cells grown on 3 mM PA compared with 18 mM pyruvate (control); result in words
Procedure: (§1) Cupriavidus necator H16 and Azoarcus sp. CIB cells harboring plasmid pIZPHTRAP were grown aerobically on PA-, benzoate- or pyruvate-containing MC medium until the culture reached to the end of the exponential phase. Cells were lysed in TE buffer (10 mM Tris-HCI, pH 7.5, 1 mM EDTA) containing 50 mg ml^-1 lysozyme. Total RNA was extracted using a High Pure RNA isolation kit (Roche), and then it was DNase-treated with a Turbo DNase kit (Ambion). The concentration and purity of the RNA samples were assessed using a Nanophotometer Pearl (Implen) according to the manufacturer's protocols, and by testing the absence of DNA through PCR amplification. Synthesis of total cDNA was performed by using the Transcriptor First Strand cDNA Synthesis kit (Roche) in 20-µl reactions containing 1 µg of RNA, 1 mM concentration of each dNTP, 10 units of reverse transcriptase, 20 units of Protector RNase Inhibitor, and 60 µM random hexamers as primers in the buffer provided by the manufacturer. The RNA and hexamers were initially heated at 65 °C for 10 min and following the addition of the rest of the components, samples were incubated at 25°C for 10 min and then at 55°C for 30 min. Reactions were terminated by incubation at 85°C for 5 min. In standard RT-PCR reactions, the cDNA was amplified with 1 unit of AmpliTaq DNA polymerase (Biotools) and […] concentrations of the corresponding primer pairs of the boxB gene from Azoarcus sp. CIB (Table 2). […] For relative quantification of the fluorescence values, a calibration curve was constructed by sevenfold serial dilutions of a C. necator H16 genomic DNA sample ranging from 1 ng to 0.5 x10-7 ng. […]
(§2) To confirm that C. necator H16 (pIZPHTRAP) was degrading PA via the box pathway, we analyzed the expression of some marker genes of the classical ben-cat pathway, e.g. benA gene, and the hybrid box pathway, e.g., boxB1 (for cluster box1) and boxB2 (for cluster box2) (Fig. 5C). qRT-PCR gene expression studies of C. necator H16 (pIZPHTRAP) cells grown on PA were compared with those of cells grown on pyruvate (control). […]

boxB1 gene = assay: as above; settings: cells grown on 3 mM PA compared with 18 mM pyruvate (control)
Procedure: as §1, §2

boxB2 gene = assay: as above; settings: cells grown on 3 mM PA compared with 18 mM pyruvate (control)
Procedure: as §1, §2

[2] = system: Azoarcus sp. CIB (pIZPHTRAP) strain
[3] = system: C. necator H16 (pIZPHTRAP) cells; assay: PHB content by GC-MS of the methanolysed polyester, aerobic bioconversion; settings: cells grown aerobically on the substance as sole carbon source (3 mM), MC medium, 30°C, stationary phase

C(=NC1CCCCC1)=NC1CCCCC1 [DCCD, 1,3-dicyclohexylcarbodiimide, reference compound]
activity at 1000 µM (A. evansii cells): > 80%
[14C]-PA uptake after pre-incubation with inhibitor ([1]; result in words): did not decrease

O=[N+]([O-])c1ccc(O)c([N+](=O)[O-])c1 [DNP, 2,4-dinitrophenol, reference compound]
[14C]-PA uptake after pre-incubation with inhibitor ([1]; result in words): completely inhibited

O=C(O)c1ccccc1C(=O)O [PA, o-phthalate]
uptake rate of 25 µM [14C]-PA with competitor ([1]; 250 µM unlabeled competitor, result in words): completely inhibited
Km ([1]; Azoarcus sp. CIB (pIZPHTRAP) cells, read-out: transport affinity (Km)): 15 µM
saturation kinetics ([1]; PA concentration at saturation, Azoarcus sp. CIB (pIZPHTRAP) cells): about 20 µM
maximum uptake rate ([1]; [14C]-PA 5 to 25 µM, Azoarcus sp. CIB (pIZPHTRAP) cells): about 156 ± 14 pmol min^-1 mg protein^-1
basal expression of the benA gene (benA gene): similar
fold induction at 3000 µM (boxB1 gene): ~40
fold induction at 3000 µM (boxB2 gene): ~400
PHB production efficiency, lower than that of the recombinant C. necator H16 strain [2]: 5 fold

O=C(O)c1ccccc1 [benzoate]
PHB accumulated, of the total cell dry weight [3]: 14%

O=C(O)c1cccc(C(=O)O)c1 [isophthalate, reference compound]
[14C]-PA uptake rate, % of the rate in the absence of a competitor substrate ([1]; 250 µM unlabeled competitor): 50%

O=C(O)c1ccc(C(=O)O)cc1 [terephthalate, reference compound]
[14C]-PA uptake rate, % of the rate in the absence of a competitor substrate ([1]; 250 µM unlabeled competitor): 60%
